Test results from patent US20120029187A1, “HALOALKYLSULFONANILIDE DERIVATIVE” (Nissan Chemical Industries, Ltd., priority 2009, published 2012).

Key:
Assay type in all cases: in vivo
ducksalad [1] = test: Test Example 2: herbicidal effects during the vegetation period under submerged conditions; settings: treatment during the vegetation period under submerged conditions; dose 2.52 g/a
Summary of the method: (§1)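 Barnyardgrass, bulrush and ducksalad were co-sown in alluvial soil flooded to 4 cm and grown in a greenhouse at 25 to 30° C. At the 1- or 2-leaf stage, water-diluted emulsifiable concentrates went onto the water surface at set doses (g/a). Herbicidal effect was scored three weeks later on a graded scale.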

barnyardgrass [2] = test: as above; settings: treatment during the vegetation period under submerged conditions; dose 2.52 g/a
Summary of the method: as §1

bulrush [3] = test: as above; settings: treatment during the vegetation period under submerged conditions; dose 2.52 g/a
Summary of the method: as §1

ducksalad [4] = test: Test Example 1: herbicidal effects in preemergence treatment under submerged conditions; settings: dose 2.52 g/a
Summary of the method: (§2)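 Score 0–5 by mortality (5: ≥90%; 0: <5%), read 3 weeks post-application. Paddy-type cups: alluvial soil under 4 cm water, weeds seeded plus transplanted 2.5-leaf rice; diluted EC dosed onto water surface same day as sowing, g/a basis; greenhouse 25 to 30° C.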

barnyardgrass [5] = test: as above; settings: dose 2.52 g/a
Summary of the method: as §2

bulrush [6] = test: as above; settings: dose 2.52 g/a
Summary of the method: as §2

Italian ryegrass [7] = test: Test Example 3: herbicidal effects in soil treatment; settings: dose 6.3 g/a
Summary of the method: (§3)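 Seeds were sown in sterilized diluvial soil and covered with about 1.5 cm of soil. Compounds, formulated as emulsifiable concentrates and diluted with water, were sprayed evenly over the soil surface at set doses in g/a. Herbicidal effect was scored on a rating scale three weeks later.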

redroot pigweed [8] = test: as above; settings: dose 6.3 g/a
Summary of the method: as §3

common ragweed [9] = test: as above; settings: dose 6.3 g/a
Summary of the method: as §3

common lambsquater [10] = test: as above; settings: dose 6.3 g/a
Summary of the method: as §3

common chickweed [11] = test: as above; settings: dose 6.3 g/a
Summary of the method: as §3

water foxtail [12] = test: as above; settings: dose 6.3 g/a
Summary of the method: as §3

large crabgrass [13] = test: as above; settings: dose 6.3 g/a
Summary of the method: as §3

giant foxtail [14] = test: as above; settings: dose 6.3 g/a
Summary of the method: as §3

wild oat [15] = test: as above; settings: dose 6.3 g/a
Summary of the method: as §3

barnyardgrass [16] = test: as above; settings: dose 6.3 g/a
Summary of the method: as §3

Italian ryegrass [17] = test: Test Example 4: herbicidal effect in foliage treatment; settings: dose 6.3 g/a, three weeks after application
Summary of the method: (§4)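 Foliar spray, post-emergence: 14-day-old greenhouse plants (25–30° C, diluvial soil) treated with water-diluted EC at set g/a doses; visual herbicidal score at 3 wk post-application.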

beadstraw = test: as above; settings: dose 6.3 g/a, three weeks after application
Summary of the method: as §4

redroot pigweed [18] = test: as above; settings: dose 6.3 g/a, three weeks after application
Summary of the method: as §4

common ragweed [19] = test: as above; settings: dose 6.3 g/a, three weeks after application
Summary of the method: as §4

common lambsquater [20] = test: as above; settings: dose 6.3 g/a, three weeks after application
Summary of the method: as §4

common chickweed [21] = test: as above; settings: dose 6.3 g/a, three weeks after application
Summary of the method: as §4

water foxtail [22] = test: as above; settings: dose 6.3 g/a, three weeks after application
Summary of the method: as §4

large crabgrass [23] = test: as above; settings: dose 6.3 g/a, three weeks after application
Summary of the method: as §4

giant foxtail [24] = test: as above; settings: dose 6.3 g/a, three weeks after application
Summary of the method: as §4

wild oat [25] = test: as above; settings: dose 6.3 g/a, three weeks after application
Summary of the method: as §4

barnyardgrass [26] = test: as above; settings: dose 6.3 g/a, three weeks after application
Summary of the method: as §4

transplanted rice = test: Test Example 1: preemergence treatment under submerged conditions, effect on crop; settings: dose 2.52 g/a
Summary of the method: as §2

Structure (SMILES): CC(C)COC(=O)N(c1ccccc1CN1COC(C)CC1=O)S(=O)(=O)C(F)(F)F (centres unmarked) [II-8]
- C: ducksalad, herbicidal effect (evaluation scale 0-5) (ducksalad [1]): 4 (mortality of at least 70% and less than 90%)
- A: barnyardgrass, herbicidal effect (evaluation scale 0-5) (barnyardgrass [2]): 5 (mortality of 90% or above (nearly complete death))
- B: bulrush, herbicidal effect (evaluation scale 0-5) (bulrush [3]): 5 (mortality of 90% or above (nearly complete death))
- C: ducksalad, herbicidal effect (evaluation scale 0-5) (ducksalad [4]): 5 (mortality of 90% or above (nearly complete death))
- A: barnyardgrass, herbicidal effect (evaluation scale 0-5) (barnyardgrass [5]): 5 (mortality of 90% or above (nearly complete death))
- B: bulrush, herbicidal effect (evaluation scale 0-5) (bulrush [6]): 5 (mortality of 90% or above (nearly complete death))
- H: Italian ryegrass, herbicidal effect (evaluation scale 0-5) (Italian ryegrass [7]): 0 (mortality of less than 5% (almost ineffective))
- K: redroot pigweed, herbicidal effect (evaluation scale 0-5) (redroot pigweed [8]): 0 (mortality of less than 5% (almost ineffective))
- J: common ragweed, herbicidal effect (evaluation scale 0-5) (common ragweed [9]): 5 (mortality of 90% or above (nearly complete death))
- L: common lambsquater, herbicidal effect (evaluation scale 0-5) (common lambsquater [10]): 4 (mortality of at least 70% and less than 90%)
- N: common chickweed, herbicidal effect (evaluation scale 0-5) (common chickweed [11]): 3 (mortality of at least 40% and less than 70%)
- G: water foxtail, herbicidal effect (evaluation scale 0-5) (water foxtail [12]): 5 (mortality of 90% or above (nearly complete death))
- D: large crabgrass, herbicidal effect (evaluation scale 0-5) (large crabgrass [13]): 4 (mortality of at least 70% and less than 90%)
- E: giant foxtail, herbicidal effect (evaluation scale 0-5) (giant foxtail [14]): 4 (mortality of at least 70% and less than 90%)
- F: wild oat, herbicidal effect (evaluation scale 0-5) (wild oat [15]): 0 (mortality of less than 5% (almost ineffective))
- A: barnyardgrass, herbicidal effect (evaluation scale 0-5) (barnyardgrass [16]): 5 (mortality of 90% or above (nearly complete death))
- H: Italian ryegrass, herbicidal effect (Italian ryegrass [17]): 0 (mortality of less than 5% (almost ineffective))
- O: beadstraw, herbicidal effect (beadstraw): 1 (mortality of at least 5% and less than 20%)
- K: redroot pigweed, herbicidal effect (redroot pigweed [18]): 0 (mortality of less than 5% (almost ineffective))
- J: common ragweed, herbicidal effect (common ragweed [19]): 4 (mortality of at least 70% and less than 90%)
- L: common lambsquater, herbicidal effect (common lambsquater [20]): 5 (mortality of 90% or above (nearly complete death))
- N: common chickweed, herbicidal effect (common chickweed [21]): 1 (mortality of at least 5% and less than 20%)
- G: water foxtail, herbicidal effect (water foxtail [22]): 5 (mortality of 90% or above (nearly complete death))
- D: large crabgrass, herbicidal effect (large crabgrass [23]): 5 (mortality of 90% or above (nearly complete death))
- E: giant foxtail, herbicidal effect (giant foxtail [24]): 4 (mortality of at least 70% and less than 90%)
- F: wild oat, herbicidal effect (wild oat [25]): 0 (mortality of less than 5% (almost ineffective))
- A: barnyardgrass, herbicidal effect (barnyardgrass [26]): 5 (mortality of 90% or above (nearly complete death))
- a: transplanted rice, effect on crop (evaluation scale 0-5) (transplanted rice): 0 (mortality of less than 5% (almost ineffective))

Structure (SMILES): CC(C)COC(=O)N(c1ccccc1CN1COC(C)(C)CC1=O)S(=O)(=O)C(F)(F)F [II-26]
- C: ducksalad, herbicidal effect (evaluation scale 0-5) (ducksalad [1]): 5 (mortality of 90% or above (nearly complete death))
- A: barnyardgrass, herbicidal effect (evaluation scale 0-5) (barnyardgrass [2]): 5 (mortality of 90% or above (nearly complete death))
- B: bulrush, herbicidal effect (evaluation scale 0-5) (bulrush [3]): 5 (mortality of 90% or above (nearly complete death))
- C: ducksalad, herbicidal effect (evaluation scale 0-5) (ducksalad [4]): 5 (mortality of 90% or above (nearly complete death))
- A: barnyardgrass, herbicidal effect (evaluation scale 0-5) (barnyardgrass [5]): 5 (mortality of 90% or above (nearly complete death))
- B: bulrush, herbicidal effect (evaluation scale 0-5) (bulrush [6]): 5 (mortality of 90% or above (nearly complete death))
- H: Italian ryegrass, herbicidal effect (evaluation scale 0-5) (Italian ryegrass [7]): 3 (mortality of at least 40% and less than 70%)
- K: redroot pigweed, herbicidal effect (evaluation scale 0-5) (redroot pigweed [8]): 0 (mortality of less than 5% (almost ineffective))
- J: common ragweed, herbicidal effect (evaluation scale 0-5) (common ragweed [9]): 5 (mortality of 90% or above (nearly complete death))
- L: common lambsquater, herbicidal effect (evaluation scale 0-5) (common lambsquater [10]): 0 (mortality of less than 5% (almost ineffective))
- N: common chickweed, herbicidal effect (evaluation scale 0-5) (common chickweed [11]): 2 (mortality of at least 20% and less than 40%)
- G: water foxtail, herbicidal effect (evaluation scale 0-5) (water foxtail [12]): 5 (mortality of 90% or above (nearly complete death))
- D: large crabgrass, herbicidal effect (evaluation scale 0-5) (large crabgrass [13]): 5 (mortality of 90% or above (nearly complete death))
- E: giant foxtail, herbicidal effect (evaluation scale 0-5) (giant foxtail [14]): 4 (mortality of at least 70% and less than 90%)
- F: wild oat, herbicidal effect (evaluation scale 0-5) (wild oat [15]): 0 (mortality of less than 5% (almost ineffective))
- A: barnyardgrass, herbicidal effect (evaluation scale 0-5) (barnyardgrass [16]): 5 (mortality of 90% or above (nearly complete death))
- H: Italian ryegrass, herbicidal effect (Italian ryegrass [17]): 3 (mortality of at least 40% and less than 70%)
- O: beadstraw, herbicidal effect (beadstraw): 4 (mortality of at least 70% and less than 90%)
- K: redroot pigweed, herbicidal effect (redroot pigweed [18]): 0 (mortality of less than 5% (almost ineffective))
- J: common ragweed, herbicidal effect (common ragweed [19]): 5 (mortality of 90% or above (nearly complete death))
- L: common lambsquater, herbicidal effect (common lambsquater [20]): 0 (mortality of less than 5% (almost ineffective))
- N: common chickweed, herbicidal effect (common chickweed [21]): 3 (mortality of at least 40% and less than 70%)
- G: water foxtail, herbicidal effect (water foxtail [22]): 5 (mortality of 90% or above (nearly complete death))
- D: large crabgrass, herbicidal effect (large crabgrass [23]): 4 (mortality of at least 70% and less than 90%)
- E: giant foxtail, herbicidal effect (giant foxtail [24]): 4 (mortality of at least 70% and less than 90%)
- F: wild oat, herbicidal effect (wild oat [25]): 0 (mortality of less than 5% (almost ineffective))
- A: barnyardgrass, herbicidal effect (barnyardgrass [26]): 4 (mortality of at least 70% and less than 90%)
- a: transplanted rice, effect on crop (evaluation scale 0-5) (transplanted rice): 0 (mortality of less than 5% (almost ineffective))
